Each structure is given as a SMILES string. Entries after “also recorded” stand apart in the source; their conditions may differ.

Experiment [1] is described as follows: Muscle mass, plantar flexion tetanic force and treadmill endurance in aged and young C57BL/6 mice. It is filed as in vivo, mouse. The note with it: young mice, daily i.p., 1 month.
Excerpt: (§1) We performed all experiments and protocols in compliance with the institutional guidelines of Stanford University and Administrative Panel on Laboratory Animal Care (APLAC). Mid (18 mo.) and aged (>24 mo.) mice C57BL/6 were obtained the US National Institute on Aging (NIA) for aged muscle studies, and young (2-4 mo.) wild-type C57BL/6 mice from Jackson Laboratory. Mice were maintained in specific-pathogen free housing on a 12-hour dark/light cycle for study duration.
(§2) Time and distance to exhaustion was performed as previously described (4) for SW-treated mice and their controls (FIG. 3A).
(§3) The peak isometric torque (N·mm) of the ankle plantarflexors was assessed as previously described (8,9). Briefly, the foot of anesthetized mice was placed on a footplate attached to a servomotor (model 300C-LR; Aurora Scientific). Two Pt-Ir electrode needles (Aurora Scientific) were inserted percutaneously were inserted subcutaneously over the tibial nerve, just posterior/posterior-medial to the knee. The ankle joint was secured at a 90° angle. The peak isometric torque was achieved by varying the current delivered to the tibial nerve at a frequency of 200 Hz and a 0.1-ms square wave pulse. We performed three tetanic measurements on each muscle, with 1 min recovery between each measurement. Data were collected with the Aurora Scientific Dynamic Muscle Data Acquisition and Analysis Software.
(§4) We performed all experiments and protocols in compliance with the institutional guidelines of Stanford University and Administrative Panel on Laboratory Animal Care (APLAC). Middle aged (18-20 mo.) and aged (>24 mo.) mice C57BL/6 were obtained the US National Institute on Aging (NIA) for aged muscle studies, and young (2-4 mo.) wild-type C57BL/6 mice from Jackson Laboratory. INK-ATTAC mice were generated as previously described (1). INK-ATTAC healthspan assessments. INK-ATTAC mice were crossed onto the C57BL6/J genetic background and maintained in specific-pathogen free housing on a 12-hour dark/light cycle for study duration. At 12 months of age, male mice were either utilized for baseline healthspan assessments and terminal muscle harvest or randomized to receive twice-weekly vehicle or AP20187 (2 mg/kg intraperitoneal injection; B/B homodimerizer, Clontech) until assessment and sacrifice at 28 months of age (2). […] Time and distance to exhaustion was performed as previously described (4) for SW-treated mice and their controls. […]
as §3, with “described (21, 22).” for “described (8,9).”, “percutaneously and” for “percutaneously were inserted”, “a 0.1—ms” for “a 0.1-ms”

Another experiment deals with aged mice. The experiment is described as above. The note with it: aged (>24 mo) mice, daily i.p. 5 mg/kg, 1 month, 5 mg/kg. It is filed as in vivo, mouse.
Excerpt: as §1, §2, §3, §4
as §3, with “described (21, 22).” for “described (8,9).”, “percutaneously and” for “percutaneously were inserted”, “a 0.1—ms” for “a 0.1-ms”

The next experiment has as its target T1, 15-PGDH (Mus musculus, UniProt Q8VCC1).
T1 construct: 15-PGDH specific enzymatic activity assayed in muscle tissues of vehicle and SW treated aged muscles; from tissue; host or cells: skeletal muscle lysates of aged C57BL/6 mice
In words: 15-PGDH kinetic assay (PicoProbe kit) in muscle lysates of treated mice. The class given is in vivo. Particulars: aged mice, daily i.p., 1 month.

Another experiment relates to mdx4cv/mTRKO(G2) mice. Description: Plantar flexion tetanic force in Duchenne muscular dystrophy mouse model. The class given is in vivo. The note with it: 8 month old mice, 4 weeks of treatment. The procedure: For ABT-263 treatments, 20 month old C57/B16 mice were treated with vehicle (ethanol:polyethylene glycol 400:Phosal 50 PG) or ABT-263 (in ethanol:polyethylene glycol 400:Phosal 50 PG) by oral gavage for 2 cycles of 1 week with a 2 week rest period between cycles as described previously (1). For the Duchenne muscular dystrophy (DMD) mouse model, we used 8-10 month old mdx4cv/mTRKO(G2) generated as previously described (2).
as §2, §3

The test system of experiment [2] is 15-PGDH overexpressing young muscles. The class given is in vivo, mouse.
Method: Middle aged (18-20 mo.) and aged (>24 mo.) mice C57BL/6 were obtained the US National Institute on Aging (NIA) for aged muscle studies, and young (2-4 mo.) wild-type C57BL/6 mice from Jackson Laboratory. […] Time and distance to exhaustion was performed as previously described (4) for SW-treated mice and their controls.
Overexpression of Hpgd (15-PGDH) was achieved by integrating AAV9 under CMV promoter and with eGFP under IRES (AA9-CMV-m-HPGD-IRES-eGFP) (Vector Biolabs). The control virus was AAV9-tMCK-eGFP-WPRE.
The peak isometric torque (N·mm) of the ankle plantarflexors was assessed as previously described (21, 22). Briefly, the foot of anesthetized mice was placed on a footplate attached to a servomotor (model 300C-LR; Aurora Scientific). Two Pt-Ir electrode needles (Aurora Scientific) were inserted percutaneously and subcutaneously over the tibial nerve, just posterior/posterior-medial to the knee. The ankle joint was secured at a 90° angle. The peak isometric torque was achieved by varying the current delivered to the tibial nerve at a frequency of 200 Hz and a 0.1—ms square wave pulse. We performed three tetanic measurements on each muscle, with 1 min recovery between each measurement. Data were collected with the Aurora Scientific Dynamic Muscle Data Acquisition and Analysis Software.
The subject of experiment [3] is aged muscle transcriptome. In words: RNA sequencing of vehicle and SW treated aged muscles. It is filed as in vivo, mouse. Particulars: SW 1 month. The source says: For RNA-seq, RNA was isolated from muscle lysates using Trizol reagent (Thermoscientific) and purified using Qiagen RNAEasy kit from. Libraries were constructed from RNA with the TruSEQ RNA Library Preparation Kit v2 (Illumina) and sequenced to 30-40×10^6×75-bp reads per sample on a NextSeq 550 from the Stanford Functional Genomics Facility.
For the RNA-Seq analysis, the sequences were aligned against the Mus musculus genome (mm9) using STAR (16). RSEM was used for calling transcripts and calculating transcripts per million (TPM) values as well as total counts (17). A counts matrix containing the number of counts for each gene and each sample was obtained. This matrix was analyzed by DESeq2 to calculate statistical analysis of significance of genes between samples (18). […] Heatmaps were generated on normalized counts and plotted on Z-score across rows using Seaborn data visualization library in python. The data reported in this paper have been deposited in the Gene Expression Omnibus (GEO) database GSE149924.

Experiment [4] concerns bone marrow, colon, lung, and liver. Particulars: cited from earlier work.
The mark [5] stands for this setting: 15-PGDH overexpressing young muscles, daily i.p.

T1 sequence (Q8VCC1 whole entry): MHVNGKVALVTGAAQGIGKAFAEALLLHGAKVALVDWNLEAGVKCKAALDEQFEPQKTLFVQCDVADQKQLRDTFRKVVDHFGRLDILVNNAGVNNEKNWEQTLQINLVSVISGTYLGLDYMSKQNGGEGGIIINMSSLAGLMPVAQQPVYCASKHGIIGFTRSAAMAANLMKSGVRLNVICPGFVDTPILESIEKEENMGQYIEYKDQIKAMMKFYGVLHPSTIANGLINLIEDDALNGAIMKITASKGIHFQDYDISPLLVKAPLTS

As for `CCCC[S+]([O-])c1sc2nc(-c3cccs3)cc(-c3ccccc3)c2c1N` (stereo not shown) [SW033291, 2-(butylsulfinyl)-4-phenyl-6-(thiophen-2-yl)thieno[2,3-b]pyridin-3-amine], in experiment [1], the absolute strength entry was “not statistically significant” and the muscle mass entry is reported as “not statistically significant”. Further, in the experiment on aged mice, the “endurance (time to exhaustion on a treadmill)” value is given as “increases; also recorded: significant increase”; the “muscle mass (weight of dissected GA, TA, soleus)” value was “increases; also recorded: significant increase”; the “muscle strength (plantar flexion tetanic force)” value is listed as “increases; also recorded: significant increase”. In addition, in the experiment on aged mice (listed as SW), the “endurance (time to exhaustion on a treadmill)” value was “increased”; the “muscle mass (weight of dissected GA, TA, soleus)” value is listed as “significant increase”; the “muscle strength (plantar flexion tetanic force)” value is given as “significant increase”. Further, the “15-PGDH specific activity in muscle” value at 15-PGDH is “significantly reduced”. Also, the “increase in muscle strength compared to vehicle treated controls” value with mdx4cv/mTRKO(G2) mice stood at 22%. In addition, in experiment [2] (setting [5]), the “mass of TA muscle” value is recorded as “increased” and the “strength (plantar flexion tetanic force)” value is recorded as “increased”. In addition, the “muscle atrophy induced by overexpression of 15-PGDH” value in experiment [2] (young mice) is given as “rescued”. Also, in experiment [3], the Hdac4 expression entry was “diminished”; the “components of mitochondria complexes I, II, IV and V of the electron transport chain” value is on record as “markedly increased”; the “members of ubiquitin signaling pathways” value is “downregulated”; the “mitochondrial pathways (KEGG/GO enrichment of upregulated genes)” value is reported as “strong enrichment”. For the same molecule, the “expression of TGF-beta pathway genes (Mstn, Tgfb2, Acvr2a, Smad3)” value in experiment [3] (listed as SW) is listed as “decreased; also recorded: markedly reduced”. Further, the “increase of PGE2 levels in vivo” value in experiment [4] is 2 fold.

Values taken from US20220304992A1, “METHODS OF REJUVENATING AGED TISSUE BY INHIBITING 15-HYDROXYPROSTAGLANDIN DEHYDROGENASE (15-PGDH)” (The Board of Trustees of the Leland Stanford Junior …, priority 2019, published 2022).
